Assay results taken from patent publication US20260274857A1, “CRYSTAL OF DIHYDROPYRIDINONE DERIVATIVE OR SOLVATE THEREOF” (Shionogi & Co., Ltd., priority 2022, published 2026).
Values belong to the compound of their own block, whether it stands above or below them.

Columns and labels:
[1] = Moisture adsorption/desorption isotherm measurement (DVS); format: physicochemical; conditions: for difference in water content between 0% RH and 95% RH: 25° C.
From the text: The moisture adsorption/desorption isotherm measurement is a measurement method for measuring the adsorption and desorption behavior of moisture by measuring a weight change in a solid as a measurement target under each relative humidity condition.
As a basic measurement method, based on the dry weight at 0% RH (relative humidity 0%), the relative humidity is increased every 5% or 10%, and after the weight is stabilized at each relative humidity, the amount of adsorbed water can be determined from the weight increase from the reference value. Similarly, the desorption amount of water can be measured by decreasing the relative humidity every 5% or 10% from 100% RH or 95% RH.
By plotting the value of the weight change at each relative humidity, an adsorption/desorption isotherm can be obtained.
Sorption and desorption of adhesion water and crystal water are affected by particle size, crystallinity, crystal habit, and the like, so that the measurement results may slightly change.
The crystals and amorphous substances obtained in each Example were weighed in an aluminum pan, and allowed to stand at 25° C. and a relative humidity of 0%. The measurement was started after the compound was sufficiently dried and the weight was stabilized, and the weight when the relative humidity changed from 0% to 95% by 5% was recorded. Next, the weight when the relative humidity changed from 95% to 0% by 5% was recorded.
Device: DVS Advantage manufactured by Surface Measurement Systems

[2] = Solid stability test: storage stability (amount of analogous substance by HPLC, appearance); format: physicochemical; conditions: temperature, temperature and humidity conditions, light irradiation; analogous substance by HPLC and appearance
Protocol: For the solid stability of the crystal of the compound represented by Formula (I) obtained in Example 1 and the crystal of the compound represented by Formula (II) obtained in Example 16, the chemical stability under temperature, temperature and humidity conditions, and light irradiation was evaluated. The proportion (%) of the analogous substance produced by an HPLC method and the change in appearance were evaluated.
About 10 mg of the crystal was accurately weighed in a 2 mL glass container with a polyethylene stopper. After the glass container was closed, the glass container was stored at 40° C. or 60° C. for 2 weeks, 1 month, 2 months, 3 months, or 6 months. A sample stored at 40° C. is referred to as a 40° C. hermetically sealed product, and a sample stored at 60° C. is referred to as a 60° C. hermetically sealed product. In a state where the glass container was opened, the glass container was stored at a relative humidity of 75±5% at 40° C. or a relative humidity of 89±5% for 2 weeks, 1 month, 2 months, 3 months or 6 months, or in the presence of silica gel at 40° C. for 1 month, 2 months, 3 months or 6 months. A sample stored at 40° C. and a relative humidity of 75±5% or 89±5% is referred to as a 40° C. and 75% relative humidity (also referred to as 40±2° C./75±5% RH) or 40° C. and 89% relative humidity (also referred to as 40±2° C./89% RH) stored product, and a sample stored in the presence of silica gel at 40° C. is referred to as a 40° C. stored product. The −40° C. hermetically sealed product was used as a standard product.
The amount of the analogous substance was measured by an area percentage method by the HPLC method under the following conditions.
HPLC Conditions 1 were used for the crystal and amorphous substance of the compound represented by Formula (I) obtained in Example 1, and HPLC conditions 2 were used for the crystal of the compound represented by Formula (II) obtained in Example 16.
• Detector: ultraviolet absorptiometer (measurement wavelength: 260 nm) • Column: YMC-Triart C18 ExRS, S-1.9 μm, 3.0×100 mm • Column temperature: constant temperature at near 40° C. • Mobile phase A: 0.1% formic acid aqueous solution • Mobile phase B: acetonitrile • Flow rate: about 0.6 mL/min • Injection amount: 3 μL • Sample cooler temperature: about 6° C. • Feed of mobile phase: The mixing ratio of mobile phase A and mobile phase B was changed as shown in Table 18 to control concentration gradient.
Column: Cortecs (2.7 μm 3.0×100 mm)
Column temperature: 40° C.
UV detection wavelength: 254 nm

Moisture adsorption amount (%) ([1]; relative humidity 0.0%): 0.002%
Moisture desorption amount (%) ([1]; relative humidity 0.0%): −0.433%
Moisture adsorption amount (%) ([1]; relative humidity 5.0%): 0.676%
Moisture desorption amount (%) ([1]; relative humidity 5.0%): 0.606%
Moisture adsorption amount (%) ([1]; relative humidity 10.0%): 1.020%
Moisture desorption amount (%) ([1]; relative humidity 10.0%): 1.196%
Moisture adsorption amount (%) ([1]; relative humidity 15.0%): 1.312%
Moisture desorption amount (%) ([1]; relative humidity 15.0%): 1.674%
Moisture adsorption amount (%) ([1]; relative humidity 20.0%): 1.574%
Moisture desorption amount (%) ([1]; relative humidity 20.0%): 2.131%
Moisture adsorption amount (%) ([1]; relative humidity 25.0%): 1.807%
Moisture desorption amount (%) ([1]; relative humidity 25.0%): 2.495%
Moisture adsorption amount (%) ([1]; relative humidity 30.0%): 2.015%
Moisture desorption amount (%) ([1]; relative humidity 30.0%): 2.831%
Moisture adsorption amount (%) ([1]; relative humidity 35.0%): 2.213%
Moisture desorption amount (%) ([1]; relative humidity 35.0%): 3.157%
Moisture adsorption amount (%) ([1]; relative humidity 40.0%): 2.414%
Moisture desorption amount (%) ([1]; relative humidity 40.0%): 3.423%
Moisture adsorption amount (%) ([1]; relative humidity 45.0%): 2.589%
Moisture desorption amount (%) ([1]; relative humidity 45.0%): 3.699%
Moisture adsorption amount (%) ([1]; relative humidity 50.0%): 2.780%
Moisture desorption amount (%) ([1]; relative humidity 50.0%): 3.913%
Moisture adsorption amount (%) ([1]; relative humidity 55.0%): 2.976%
Moisture desorption amount (%) ([1]; relative humidity 55.0%): 4.135%
Moisture adsorption amount (%) ([1]; relative humidity 60.0%): 3.185%
Moisture desorption amount (%) ([1]; relative humidity 60.0%): 4.411%
Moisture adsorption amount (%) ([1]; relative humidity 65.0%): 3.384%
Moisture desorption amount (%) ([1]; relative humidity 65.0%): 4.683%
Moisture adsorption amount (%) ([1]; relative humidity 70.0%): 3.623%
Moisture desorption amount (%) ([1]; relative humidity 70.0%): 5.151%
Moisture adsorption amount (%) ([1]; relative humidity 75.0%): 3.914%
Moisture desorption amount (%) ([1]; relative humidity 75.0%): 5.420%
Moisture adsorption amount (%) ([1]; relative humidity 80.0%): 4.320%
Moisture desorption amount (%) ([1]; relative humidity 80.0%): 5.865%
Moisture adsorption amount (%) ([1]; relative humidity 85.0%): 4.850%
Moisture desorption amount (%) ([1]; relative humidity 85.0%): 6.219%
Moisture adsorption amount (%) ([1]; relative humidity 90.0%): 5.604%
Moisture desorption amount (%) ([1]; relative humidity 90.0%): 6.599%
Moisture adsorption amount (%) ([1]; relative humidity 95.0%): 6.974%
Moisture desorption amount (%) ([1]; relative humidity 95.0%): 6.974%
Structure (SMILES): Cc1ccc(-n2nc3c(c2NC(=O)CS(C)(=O)=O)C(=O)NC2(CCOc4cc(F)cc(F)c42)C3)nc1 (stereo not drawn)

difference in water content between 0% RH and 95% RH ([1]; DVS): about 2.6%
Structure (SMILES): CS(=O)(=O)CC(=O)Nc1c2c(nn1CCCOC(F)(F)F)C[C@@]1(CCOc3cc(OCC(F)(F)F)ccc31)NC2=O [amorphous substance of the compound represented by Formula (]

hygroscopicity (in words) ([1]; DVS, 0% to 95% RH): no problem in hygroscopicity
difference in water content between 0% RH and 95% RH ([1]; DVS): about 0.4%
Moisture adsorption amount (%) ([1]; relative humidity 0.0%): 0.0000%
Moisture desorption amount (%) ([1]; relative humidity 0.0%): 0.0690%
Moisture adsorption amount (%) ([1]; relative humidity 5.0%): 0.0149%
Moisture desorption amount (%) ([1]; relative humidity 5.0%): 0.1029%
Moisture adsorption amount (%) ([1]; relative humidity 10.0%): 0.0250%
Moisture desorption amount (%) ([1]; relative humidity 10.0%): 0.1252%
Moisture adsorption amount (%) ([1]; relative humidity 15.0%): 0.0352%
Moisture desorption amount (%) ([1]; relative humidity 15.0%): 0.1435%
Moisture adsorption amount (%) ([1]; relative humidity 20.0%): 0.0494%
Moisture desorption amount (%) ([1]; relative humidity 20.0%): 0.1610%
Moisture adsorption amount (%) ([1]; relative humidity 25.0%): 0.0623%
Moisture desorption amount (%) ([1]; relative humidity 25.0%): 0.1773%
Moisture adsorption amount (%) ([1]; relative humidity 30.0%): 0.0758%
Moisture desorption amount (%) ([1]; relative humidity 30.0%): 0.1922%
Moisture adsorption amount (%) ([1]; relative humidity 35.0%): 0.0893%
Moisture desorption amount (%) ([1]; relative humidity 35.0%): 0.2077%
Moisture adsorption amount (%) ([1]; relative humidity 40.0%): 0.1042%
Moisture desorption amount (%) ([1]; relative humidity 40.0%): 0.2206%
Moisture adsorption amount (%) ([1]; relative humidity 45.0%): 0.1204%
Moisture desorption amount (%) ([1]; relative humidity 45.0%): 0.2348%
Moisture adsorption amount (%) ([1]; relative humidity 50.0%): 0.1387%
Moisture desorption amount (%) ([1]; relative humidity 50.0%): 0.2497%
Moisture adsorption amount (%) ([1]; relative humidity 55.0%): 0.1563%
Moisture desorption amount (%) ([1]; relative humidity 55.0%): 0.2659%
Moisture adsorption amount (%) ([1]; relative humidity 60.0%): 0.1746%
Moisture desorption amount (%) ([1]; relative humidity 60.0%): 0.2822%
Moisture adsorption amount (%) ([1]; relative humidity 65.0%): 0.2016%
Moisture desorption amount (%) ([1]; relative humidity 65.0%): 0.3038%
Moisture adsorption amount (%) ([1]; relative humidity 70.0%): 0.2334%
Moisture desorption amount (%) ([1]; relative humidity 70.0%): 0.3289%
Moisture adsorption amount (%) ([1]; relative humidity 75.0%): 0.2619%
Moisture desorption amount (%) ([1]; relative humidity 75.0%): 0.3464%
Moisture adsorption amount (%) ([1]; relative humidity 80.0%): 0.2937%
Moisture desorption amount (%) ([1]; relative humidity 80.0%): 0.3627%
Moisture adsorption amount (%) ([1]; relative humidity 85.0%): 0.3268%
Moisture desorption amount (%) ([1]; relative humidity 85.0%): 0.3782%
Moisture adsorption amount (%) ([1]; relative humidity 90.0%): 0.3695%
Moisture desorption amount (%) ([1]; relative humidity 90.0%): 0.4013%
Moisture adsorption amount (%) ([1]; relative humidity 95.0%): 0.4243%
Moisture desorption amount (%) ([1]; relative humidity 95.0%): 0.4243%
Structure (SMILES): CS(=O)(=O)CC(=O)Nc1c2c(nn1CCCOC(F)(F)F)C[C@@]1(CCOc3cc(OCC(F)(F)F)ccc31)NC2=O [crystal of the compound represented by Formula (II) obtained]
solid stability (in words) [2]: excellent in solid stability under any conditions
